Here are results for 18 compounds from patent publication US8324197B2, “Transplatinum complexes with N2O2 donor sets as cytotoxic and antitumor agents” (Virginia Commonwealth University, priority 2005, dated 2012).

Series [1] in a line: Aqueous solubility of TPA-acetate complexes (sequential addition of water). It is filed as physicochemical. The note with it: ambient temperature. As to the method:
(§1) The aqueous solubility of the acetate compounds and the acid dissociation constants of the corresponding aqua species are given in Table 1. Use of acetates enhances aqueous solubility which is dependent on the exact nature of the donor ligands. The pKa values were determined by potentiometric titration of solutions of trans-[Pt(H2O)2(L)(L′)]^2+ (formed by the dissolution of the isolated trans-[Pt(NO3)2(L)(L′)]) with NaOH. […] (X=2,3,4-Me).^30

Series [2] is described as follows: pKa of corresponding TPA diaqua complexes by potentiometric titration with NaOH. It is filed as physicochemical. The note with it: corresponding diaqua complex trans-[Pt(OH2)2(L)(L′)], ambient temperature. The method, then: as §1
Series [3] has as its system ovarian cancer cell line panel. Kind of series: Cytotoxicity in ovarian cancer cell line panel (cell line not specified). Format: cell-based, human. As to the method:
(§2) It is noteworthy that the acetate compounds maintain cytotoxicity with low resistance factors in all cases. The trans-[Pt(OAc)2(NH3)2] compound is also very water-soluble but the cytotoxicity of >100 μM confirms the requirement for a planar amine to enhance cytotoxicity in the trans geometry.

Series [4] in a line: Solubility of TPA carboxylates, Example 6. The note with it: aqueous; table title ambient temperature, text 37° C. Format: physicochemical.
A short description of series [5]: Initial hydrolysis of TPA carboxylates monitored by HPLC at 37° C. The note with it: H2O; for k1, initial hydrolysis rate constant: I=0.02 M; for hydrolysis occurring after 9 h: HPLC. Format: physicochemical. The method, then: The slowest initial hydrolysis rate was found for complex 2c t-[Pt(OAc)2(NH3)(2-pic)], with just 4% hydrolysis occurring after 9 h. The hydrolysis of the formate complex 4f was the fastest, with 24% hydrolysis occurring after 9 h. The hydrolysis rates of the acetate complexes followed the pattern 2c<4c<3c. […] Thus, hydrolysis of the acetate complexes is slowed by an approximate order of magnitude compared to their direct chloro analogs but there is little difference in the present case between 3- and 4-picoline. Steric hindrance therefore predominates over the electronic effects of the methyl group. In the case of the chloride complexes, the 3-pic directs less electron density to the platinum rendering it less nucleophilic relative to the 2-pic and 4-pic. 14 We observe the same trend in the acetate complexes, but the effect is lessened due to the carboxylate group being a weak ligand, with a low trans influence and trans effect.^11

For series [6] the following is noted: corresponding diaqua complex; other compounds of the series 2-4c given for comparison (refs 11, 14); cited from earlier work.
For series [7] the following is noted: cited from earlier work; for k1, rate constant for the first aquation step: literature values of other platinum compounds.
For series [8] the following is noted: literature; cited from earlier work.
For series [9], the system named is 41M. Put plainly: Growth inhibition in human ovarian cancer cell line panel, 96 h exposure. It is filed as cell-based. The note with it: for 41M RF: RF = (IC50 Resistant)/(IC50 Sensitive). As to the method: as §2
The subject of series [10] is CH1. The series is described as above. It is filed as cell-based. The note with it: for CH1 RF: RF = (IC50 Resistant)/(IC50 Sensitive). The method, then: as §2
The conditions of series [11]: cited from earlier work; for k1, first hydrolysis step to the monoaqua complex: analogous dichloride complexes, I=0.1 M.
Series [12] concerns A2780. Kind of series: Growth inhibition in human ovarian cancer cell line panel, 96 h exposure. It is filed as cell-based. The following applies: for A2780 RF: RF = (IC50 Resistant)/(IC50 Sensitive). The method, then: as §2

Where two headings read alike, the source gives them in different places. Marks after values point to notes of the source that are not given here. Some results are limits rather than exact numbers.

For orientation: Solubility means how much of the substance goes into solution per volume. The low end stands for a poorly soluble substance, the high end for a readily soluble substance. As usually defined, the IC50 is the concentration needed to halve the response being measured. Low values mean greater potency in that assay, high ones weaker potency in that assay. In the case of `CC(=O)[O][Pt][O]C(C)=O.N.N` [trans-[Pt(OAc)2(NH3)2]], the Solubility in [1] turned out to be 21 mg/mL. In [2], the pKa1 is given as 4.0^b and the pKa2 is reported as 7.08. For the same compound, the IC50 in [3] was > 100 µM.

As to `CC(=O)[O][Pt][O]C(C)=O.Cc1cccnc1.N` [3c], in series [4], the “Solubility (mg/mL), TPA Acetates” value was 11.4 mg/mL. In addition, the “k1, initial hydrolysis rate constant” value in series [5] is 3.52e-06 s⁻¹. In addition, in series [6], the pKa1 was 3.97 and the pKa2 is 6.78.

`CC(=O)[O][Pt][O]C(C)=O.Cc1ccncc1.N` [4c]: in series [4], the “Solubility (mg/mL), TPA Acetates” value is 13.2 mg/mL. In addition, in series [5], the “k1, initial hydrolysis rate constant” value was 3.26e-06 s⁻¹. In addition, in series [6], the pKa1 is reported as 3.94 and the pKa2 was 6.88.

For the compound `NCCNCCN.[Cl-].[Pt+2]` [[PtCl(dien)]+], the “k1, rate constant for the first aquation step” value (from here on “k1, rate constant”) in series [7] is “(6.50 ± 0.13) × 10^−5 s^−1”.

As to trans-[Pt(OAcCl)2(NH3)(4-pic)] [4f], in series [4], the “Solubility (mg/mL), TPA Substituted Carboxylates” value is listed as 0.29 mg/mL. For the same compound, in series [5], the “hydrolysis occurring after 9 h” value was found to be 24%.

With `Cc1ccncc1.N.O=C([O-])C(F)(F)F.O=C([O-])C(F)(F)F.[Pt+2]` [4g, trans-[Pt(Tfa)2(NH3)(4-pic)]], in series [4], the “Solubility (mg/mL), TPA Substituted Carboxylates” value was “Insoluble”.

As to `Cc1ccncc1.N.O=C([O-])c1ccccc1.O=C([O-])c1ccccc1.[Pt+2]` [4h, trans-[Pt(OBz)2(NH3)(4-pic)]], in series [4], the “Solubility (mg/mL), TPA Substituted Carboxylates” value is given as “Insoluble”.

With `N.N.[Cl][Pt+2][Cl]` [Transplatin, trans-[PtCl2(NH3)2]], the “k1, rate constant” value in series [7] is 0.00019 s⁻¹. Also, the “time to complete reaction with N-AcMet” value in [8] is ≤ 5 h.

Regarding `N.N.[Cl][Pt][Cl]` [Cisplatin, cis-[PtCl2(NH3)2], reference compound], in [9], half-maximal inhibition (IC50) required 1.4 µM and the “41M RF” value was “(6.1)”. Besides, in series [10], the half-inhibitory concentration (IC50) turned out to be 0.1 µM and the “CH1 RF” value is listed as “(6.7)”. The “k1, rate constant” value in series [7] is 5.18e-05 s⁻¹. For the same compound, the hydrolysis rate in series [11] (at 20° C., literature) was 5.18e-05 s⁻¹.

With “trans-[diacetato(ammine)(quinoline)platinum(II)] [trans-[Pt(OAc)2(NH3)(quin)]]”, in series [9], half-maximal inhibition (IC50) required 22 µM and the “41M RF” value is “(1.00)”. Moreover, in series [12], inhibition was half-maximal at 13 µM (IC50) and the “A2780 RF” value is on record as “(1.46)”. Besides, in series [10], the IC50 came to 17 µM and the “CH1 RF” value is recorded as “(0.48)”.

As for `CC(=O)[O-].CC(=O)[O-].Cc1ccccn1.N.[Pt+2]` [2c, trans-[Pt(OAc)2(NH3)(2-pic)]], the “Solubility (mg/mL), TPA Acetates” value in series [4] is on record as 10 mg/mL. In [5], the “hydrolysis occurring after 9 h” value is 4% and the “k1, initial hydrolysis rate constant” value was found to be 1.07e-06 s⁻¹. Moreover, in series [6], the pKa1 was 4.03 and the pKa2 is given as 7.1.

On to `Cc1cccnc1.N.[Cl][Pt][Cl]` [3-pic], for which, in series [11], the “k1, first hydrolysis step to the monoaqua complex” value (“k1, first hydrolysis step” for short) was 0.000127 s⁻¹.

In the case of “trans-[diacetatobis(pyridine)platinum(II)] [trans-[Pt(OAc)2(py)2]]”, in series [9], the midpoint of inhibition, the IC50, lay at 14 µM and the “41M RF” value is reported as “(0.32)”. Further, in series [12], the concentration for half-maximal inhibition (IC50) was 12.8 µM and the “A2780 RF” value is given as “(0.90)”. Further, in series [10], the IC50 is 19 µM and the “CH1 RF” value was “(0.22)”.

For the compound `Cc1ccncc1.N.[Cl][Pt][Cl]` [4-pic], the “k1, first hydrolysis step” value in series [11] is 5.2e-05 s⁻¹.

As to `Cc1ccccn1.N.[Cl][Pt][Cl]` [2-pic], in series [11], the “k1, first hydrolysis step” value was 2.6e-05 s⁻¹.

With `Cc1ccncc1.N.O=C(CO)[O][Pt][O]C(=O)CO` [4d, trans-[Pt(OAcOH)2(NH3)(4-pic)]], the “k1, initial hydrolysis rate constant” value in series [5] came to 5.61e-06 s⁻¹.

`CCC[NH][Pt]([NH]CCC)([O]C(=O)CCl)[O]C(=O)CCl` [cis-[Pt(PrNH2)2(ClCH2CO2)2]]: the “rate constant of substitution by water of the first carboxylate ligand” value in series [7] (cis carboxylate complex, literature) was 4.38e-05 s⁻¹.

As to `[NH2][Pt]1([NH2])[O]C(=O)C2(CCC2)C(=O)[O]1` [Carboplatin, cis-[Pt(CBDCA)(NH3)2]], the hydrolysis rate constant in series [7] (aqueous solution) is < 5e-09 s⁻¹. Further, the “k1, rate constant” value in series [7] is given as <10^−8 s^−1. Also, the hydrolysis rate in [7] (phosphate buffer at 310 K) was 7.2e-07 s⁻¹.
